Target: T1, PDE-4B2 (Homo sapiens, UniProt Q07343)
T1 construct: gene PDE4B; human recombinant PDE-4B2 (BPS Bioscience no. 60042)
Assay: PDELight HTS cAMP phosphodiesterase luminescence assay
Assay type: biochemical

T1 sequence (Q07343 1-564 isoform Q07343-2): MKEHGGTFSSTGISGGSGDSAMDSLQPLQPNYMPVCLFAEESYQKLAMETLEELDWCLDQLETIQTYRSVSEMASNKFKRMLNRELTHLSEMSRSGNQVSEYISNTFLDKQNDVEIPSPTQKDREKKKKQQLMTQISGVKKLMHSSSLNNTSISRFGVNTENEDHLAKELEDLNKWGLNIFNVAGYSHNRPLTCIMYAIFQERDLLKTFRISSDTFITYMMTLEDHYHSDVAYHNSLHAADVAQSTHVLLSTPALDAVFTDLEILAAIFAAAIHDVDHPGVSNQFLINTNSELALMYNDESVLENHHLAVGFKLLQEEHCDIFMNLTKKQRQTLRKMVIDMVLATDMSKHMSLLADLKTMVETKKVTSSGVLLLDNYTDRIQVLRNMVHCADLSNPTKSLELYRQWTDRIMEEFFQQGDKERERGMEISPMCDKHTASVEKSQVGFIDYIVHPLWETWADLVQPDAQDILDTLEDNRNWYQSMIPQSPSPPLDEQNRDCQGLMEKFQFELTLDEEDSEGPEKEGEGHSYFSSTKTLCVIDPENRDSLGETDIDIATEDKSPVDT

IC50: 10 to 20 µM
Substance: lysoquinone-TH1 [compound 7]
